# Test results from patent publication US20130203084A1, “SPECIFIC DETECTION OF HUMAN CHORIONIC GONADOTROPIN BETA SUBUNIT TYPE II PRODUCED BY TROPHOBLASTIC AND NEOPLASTIC CELLS” (Universite Paris Descartes, priority 2010, published 2013).
# Test system: binding of 125I-HCGβ to monoclonal antibody FBT11-II
# Assay: Competitive inhibition assay with synthetic peptides (125I-HCGβ tracer)
# Settings: increasing concentrations of unlabeled peptide; 4° C. for 18 h; FIG. 2
# Protocol: Competitive inhibition assays were performed as previously described (20). Briefly, ^125I labelled HCGβ was employed as the tracer. All experiments were performed in 50 mM phosphate buffer, pH 7.5, containing 154 mM NaCl, 0.02% sodium azide, and 1% bovine serum albumin. First, we determined the dilution of FBT11-II which produced a 50% binding to ^125I-HCGβ (30,000 cpm) in the absence of peptide. Then, competitive inhibition assays were performed with the defined dilution of antibody. Displacement curves were generated in the presence of increasing concentrations of unlabeled peptides as follows: 100 μl of ^125I—HCGIβ, 100 μl of monoclonal antibody, and 50 μl of the competitive inhibitor were incubated simultaneously at 4° C. for 18 h. The antigen-antibody complex was then precipitated by adding normal human serum diluted (1:3) in phosphate buffer (100 μl) and 1 ml of 20% polyethylene glycol. After centrifugation, the pellet was counted.
# Since it was previously shown that FBT11 recognizes residues 1 through 7 and 82 through 92 of the free HCGβ subunit (20), in this study we examined whether the differences in the N-terminal sequence of HCGβ altered the recognition of FBT11-II. We performed inhibition assays with peptides spanning residues 1 through 7 to determine mAb FBT11-II specificity. We used three peptides analogous to sequences 1-7 of HCGβ encoded by type I gene (SREMLRP, SEQ ID NO: 4), 1-7 of HCGβ encoded by type II genes (SKEPLRP, SEQ ID NO: 3) and 1-7 of LHβ (SREPLRP, SEQ ID NO: 5) (FIG. 2). First, we determined the dilution of FBT11-II which produced a 50% binding to ^125I-HCGβ in the absence of peptide. Then, competitive inhibition assays were performed with the defined dilution of antibody. Displacement curves were generated in the presence of increasing concentrations of unlabeled peptides.
row,Inhibition of 125I-HCGβ binding to antibody FBT11-II (displacement of bound tracer),Substance
1,highest potency,"SKEPLRP (Synthetic 7-mer peptides corresponding to residues 1 through 7 of HCGbeta encoded by type II genes beta3, beta5 and beta8)"
2,unable to inhibit,SREMLRP (Synthetic 7-mer peptides corresponding to residues 1 through 7 of HCGbeta encoded by type I gene beta7)
3,to a lesser degree than SKEPLRP,SREPLRP (Synthetic 7-mer peptides corresponding to residues 1 through 7 of the LHbeta gene)
